Data reported in patent US20130164747A1, “Predicting Treatment Response in Cancer Subjects” (University of South Florida, priority 2005, published 2013).
Read-outs that look alike come from different tables or passages of the source.

Key:
H23 (NCI-H23) cells = assay: MTS assay (modified MTT), parent cell line; type: cell-based
Method: (§1) A modified MTT assay (MTS assay, Promega, Madison, Wis.) was used to assess the impact of RRM1 expression on therapeutic efficacy of gemcitabine and platinum-containing agents in vitro. This MTS assay utilized 3-(4,5-dimethylthiazol-2-yl)-5-(3-carboxymethoxyphenyl)-2-(4-sulfophenyl)-2H-tetrazolium as the reagent. The assay was performed by seeding 4,000 cells/well in 96 well flat-bottom plates. H23-Ct, H23-R1, H23siR1, H23siCt cells were continuously exposed to drug for 72 or 96 hr. After 3 hr of incubation at 37° C., the absorbance was measured at 490 nm in a microplate reader (Benchmark Plus, Bio-Rad, Hercules, Calif.). All experiments were repeated three times.
(§2) The MTS assay was performed by seeding 4,000 cells/well in 96 well flat-bottom plates. H23-Ct, H23-R1, H23 siR1, H23siCt cells were continuously exposed to drug for 72 or 96 h. The assay was performed with 3-(4,5-dimethylthiazol-2-yl)-5-(3-carboxymethoxyphenyl)-2-(4-sulfophenyl)-2H-tetrazolium reagent. After 3 h of incubation at 37° C., the absorbance was measured at 490 nm. All experiments were repeated three times.

H23siR1 cells [1] = assay: Drug-induced apoptosis, annexin V labeling by flow cytometry; type: cell-based
Method: (§3) To determine drug-induced in vitro apoptosis, 3×10^5 cells/well were seeded in six-well plates and allowed to attach overnight. Chemotherapeutic agents were added to the culture at the indicated concentrations. After 2, 4, and 6 hours of treatment annexin V labeling of the cells was performed as recommended by the manufacturer (BD Pharmingen, San Diego, Calif.). The percentage of labeled cells was determined by flow cytometry (FACScalibur, Becton Dickinson, Franklin Lakes, N.J.). […] The proportion of cells labeled after 6 h of treatment with 250 nM gemcitabine was 6.6-6.9% in control cell lines, 2.6% in H23-R1, and 15.2% in H23siR1. Cisplatin exposure for 6 h at 200 nM yielded 14.5-15.1% apoptotic cells in H23-Ct and H23siCt, 5.5% apoptotic cells in H23-R1, and 19.0% apoptotic cells in H23siR1.
(§4) Induction of apoptosis as a result of drug exposure was determined with 3×10^5 cells/well in six-well plates after 2, 4 and 6 hours of treatment. Cells were then labeled with annexin V, and labeling was determined by flow cytometry (FACScalibur, Becton Dickinson). After 4 h and 6 h of gemcitabine treatment 2.55% and 5.05% of the H23siCt cells were apoptotic while 5.09% and 15.7% of H23siR1 cells were apoptotic (FIG. 4). Likewise, the proportion of apoptotic cells after exposure to […] was higher in H23siR1 than in control cells. […] The increased apoptosis caused by both drugs in cell lines with reduced RRM1 expression was significant (p<0.05) as compared to control cells.

H23-R1 cells [2] = assay: as above; type: cell-based
Method: as §3, §4

[3] = system: control cell lines H23-Ct and H23siCt; assay: as above; type: cell-based; conditions: 6 h
Method: as §3

RRM1 expression = assay: Summary of observations: response by RRM1 expression level
H23siR1 cells [4] = assay: MTS assay, cell line with siRNA-reduced RRM1 expression; type: cell-based
Text: (§5) Reduced expression of RRM1 correlates with increased sensitivity to gemcitabine. Stable, genetically modified cell lines with increased and decreased RRM1 expression and corresponding controls were generated (Gautam et al., Oncogene 22:2135-42, 2003). H23, originating from a lung adenocarcinoma, was used as the parent cell line (Carney et al., Cancer Res 45:2913-23, 1985). H23siR1 was generated by stable transfection of NCI-H23 with a pSUPER-siRRM1 construct. These cells express an siRNA that targets RRM1, thereby causing decreased expression of RRM1. To generate this construct, the pSUPER-GFP/neo vector (OligoEngine, Seattle, Wash.) was digested with BglII and HindIII and the annealed oligonucleotides (5′-GATCCCCgacgctagagcggtettat[…]ataagaccgctctagcgte[…]-3′(SEQ ID NO:1) and 5′-[…]gacgctagagcggtcttatTC TCTTGAAataagaccgctctagcgtcGGG-3′ (SEQ ID NO:2)) were ligated into the vector. The 19 nucleotide RRM1 target sequences are denoted by lower-case letters. The control H23siCt cell line was generated which expressed an siRNA targeting the sequence […] (SEQ ID NO:3). This sequence has no similarity to any known gene. H23-R1 is a stable RRM1 overexpressing cell line, and H23-Ct is its corresponding control. Both were generated by transfection with full-length RRM1 cDNA cloned into the expression plasmid pCMV-Tag2 (Stratagene, La Jolla, Calif.) as previously described (Gautam et al., Oncogene 22:2135-42, 2003). The level of RRM1 expression in these cell lines was assessed by real-time quantitative RT-PCR and Western blot analysis.
as §1, §2

H23-Ct cells = assay: MTS assay, control cell line of H23-R1; type: cell-based
Text: as §5, §1, §2

H23siCt cells [5] = assay: Drug-induced apoptosis, annexin V labeling by flow cytometry; type: cell-based
Method: as §4

H23siCt cells [6] = assay: MTS assay, siRNA control cell line; type: cell-based
Text: as §5, §1, §2

H23-R1 cells [7] = assay: MTS assay, RRM1-overexpressing cell line; type: cell-based
Text: as §5, §1, §2

ERCC1 expression = assay: Summary of observations: response by ERCC1 expression level
[8] = Homo sapiens, H23 (NCI-H23) parent cell line, continuous exposure 72 or 96 hr, read-out: IC50 +/− SD
[9] = H23siR1, RRM1 5-fold down, continuous exposure 72 or 96 hr, read-out: IC50 +/− SD
[10] = RRM1 no change, continuous exposure 72 or 96 hr, read-out: IC50 +/− SD
[11] = H23-R1, RRM1 3-fold up, continuous exposure 72 or 96 hr, read-out: IC50 +/− SD
[12] = H23 (NCI-H23) parent cell line, continuous exposure 72 or 96 hr, read-out: IC50 +/− SD
[13] = continuous exposure 72 or 96 h, read-out: IC50

Q: `Nc1ccn([C@@H]2O[C@H](CO)[C@@H](O)C2(F)F)c(=O)n1` [Gemcitabine, gemcitabine] was tested. Which IC50 (H23 (NCI-H23) cells; [8]) did it give?
A: The IC50 was 500 nM.

Q: What about the “Proportion of cells labeled with annexin V” value (“Proportion of cells labeled” for short) (H23siR1 cells [1]; H23siR1, 250 nM gemcitabine, 6 h) of the same compound?
A: Its value is 15.2%.

Q: What about the Apoptotic cells (H23siR1 cells [1]; H23siR1, 4 h of treatment (Example 4, FIG. 4)) of the same compound?
A: Its Apoptotic cells is 5.09%.

Q: What about the Apoptotic cells (H23siR1 cells [1]; H23siR1, 6 h of treatment (Example 4, FIG. 4)) of the same compound?
A: The Apoptotic cells was 15.7%.

Q: And the “Proportion of cells labeled” value (H23-R1 cells [2]; H23-R1, 250 nM gemcitabine, 6 h)?
A: Its value is 2.6%.

Q: What about the “Proportion of cells labeled” value ([3]; control cell lines, 250 nM gemcitabine) of the same compound?
A: Its value is 6.6-6.9%.

Q: What about the “Response at RRM1 high expression” value (RRM1 expression) of the same compound?
A: Its value is “resistant”.

Q: What about the “Response at RRM1 low expression” value (RRM1 expression) of the same compound?
A: The value was “Sensitive”.

Q: And the IC50 (H23siR1 cells [4]; [9])?
A: Its IC50 is 100 nM.

Q: What about the “IC50 of H23siR1 lower than IC50 of H23siCt (more sensitive than control cell line)” value (H23siR1 cells [4]; H23siR1 versus H23siCt) of the same compound?
A: Its value is 10 fold.

Q: What about the IC50 (H23-Ct cells; [10]) of the same compound?
A: Its IC50 is 750 nM.

Q: What about the Apoptotic cells (H23siCt cells [5]; 4 h of treatment (Example 4, FIG. 4)) of the same compound?
A: The Apoptotic cells was 2.55%.

Q: And the Apoptotic cells (H23siCt cells [5]; 6 h of treatment (Example 4, FIG. 4))?
A: Its Apoptotic cells is 5.05%.

Q: And the IC50 (H23siCt cells [6]; [10])?
A: The IC50 was 1020 nM.

Q: What about the IC50 (H23-R1 cells [7]; [11]) of the same compound?
A: Its IC50 is 6000 nM.

Q: What about the “IC50 of H23-R1 higher than IC50 of H23-Ct (more resistant than control cell line)” value (H23-R1 cells [7]; H23-R1 versus H23-Ct) of the same compound?
A: The value was 8 fold.

Q: Which results are given for `N.N.[Cl][Pt][Cl]` [Cisplatin, cisplatin]?
A: IC50 (H23 (NCI-H23) cells; [12]): 1200 nM; Apoptotic cells (H23siR1 cells [1]; H23siR1, cisplatin 200 nM, 6 h): 19.0%; Apoptotic cells (H23-R1 cells [2]; H23-R1, cisplatin 200 nM, 6 h): 5.5%; Apoptotic cells ([3]; H23-Ct and H23siCt, cisplatin 200 nM): 14.5-15.1%; Response at RRM1 high expression (RRM1 expression): Minimal; Response at RRM1 low expression (RRM1 expression): Minimal; IC50 (H23siR1 cells [4]; [9]): 950 nM; Response at ERCC1 high expression (ERCC1 expression): resistant; Response at ERCC1 low expression (ERCC1 expression): sensitive; IC50 (H23-Ct cells; [10]): 1250 nM; IC50 (H23siCt cells [6]; [10]): 1000 nM; IC50 (H23-R1 cells [7]; [11]): 1500 nM

Q: What does the source list for `N.N.O=C([O-])C1(C(=O)[O-])CCC1.[Pt+2]` [Carboplatin, carboplatin]?
A: IC50 (H23 (NCI-H23) cells; [12]): 12000 nM; Response at RRM1 high expression (RRM1 expression): Minimal; Response at RRM1 low expression (RRM1 expression): Minimal; IC50 (H23siR1 cells [4]; [9]): 10000 nM; Response at ERCC1 high expression (ERCC1 expression): resistant; Response at ERCC1 low expression (ERCC1 expression): sensitive; IC50 (H23-Ct cells; [10]): 15000 nM; IC50 (H23siCt cells [6]; [10]): 13000 nM

Q: For `CC(=O)O[C@@]12CO[C@@H]1C[C@H](O)[C@@]1(C)C(=O)[C@H](O)C3=C(C)[C@@H](OC(=O)[C@H](O)[C@@H](NC(=O)OC(C)(C)C)c4ccccc4)C[C@@](O)([C@@H](OC(=O)c4ccccc4)[C@H]21)C3(C)C` [Docetaxel, docetaxel], which IC50 (H23 (NCI-H23) cells; [8]) is on record?
A: Its IC50 is 1000 nM.

Q: What about the “Proportion of apoptotic cells compared with control cells” value (H23siR1 cells [1]; H23siR1 versus control cells) of the same compound?
A: The value was “higher”.

Q: What about the “Apoptosis compared with control cells” value (H23-R1 cells [2]; H23-R1 versus control cells) of the same compound?
A: The value was “more apoptosis”.

Q: What about the “Response at RRM1 high expression” value (RRM1 expression) of the same compound?
A: Its value is “Sensitive”.

Q: What about the “Response at RRM1 low expression” value (RRM1 expression) of the same compound?
A: The value was “Sensitive”.

Q: And the “Response at RRM1 medium expression” value (RRM1 expression)?
A: The value was “Resistant”.

Q: And the IC50 (H23siR1 cells [4]; [9])?
A: Its IC50 is 6 nM.

Q: And the IC50 (H23-Ct cells; [10])?
A: The IC50 was 700 nM.

Q: What about the IC50 (H23siCt cells [6]; [10]) of the same compound?
A: The IC50 was 2500 nM.

Q: What about the IC50 (H23-R1 cells [7]; [11]) of the same compound?
A: The IC50 was 9 nM.

Q: What does the source list for `CCC1=C[C@@H]2CN(C1)Cc1c([nH]c3ccccc13)[C@@](C(=O)OC)(c1cc3c(cc1OC)N(C)[C@H]1[C@@](O)(C(=O)OC)[C@H](OC(C)=O)[C@]4(CC)C=CCN5CC[C@]31[C@@H]54)C2` [Vinorelbine, vinorelbine]?
A: IC50 (H23 (NCI-H23) cells; Homo sapiens, NCI-H23, continuous exposure 72 or 96 h, read-out: IC50): 8000 nM; Response at RRM1 high expression (RRM1 expression): Sensitive; Response at RRM1 low expression (RRM1 expression): Sensitive; Response at RRM1 medium expression (RRM1 expression): Resistant; IC50 (H23siR1 cells [4]; H23siR1, continuous exposure 72 or 96 h, read-out: IC50): 10 nM; IC50 (H23-Ct cells; [13]): 20000 nM; IC50 (H23siCt cells [6]; [13]): 20000 nM; IC50 (H23-R1 cells [7]; H23-R1, continuous exposure 72 or 96 h, read-out: IC50): 400 nM

Q: How did the “Response at RRM1 high expression” value (RRM1 expression) turn out when `Nc1nc2[nH]cc(CCc3ccc(C(=O)N[C@@H](CCC(=O)O)C(=O)O)cc3)c2c(=O)[nH]1` [Pemetrexed, pemetrexed] was run?
A: The value was “resistant”.

Q: And the “Response at RRM1 low expression” value (RRM1 expression)?
A: Its value is “Sensitive”.
